Measured values reported in paper PMC12010322, “ReaxFF-Guided Optimization of VIRIP-Based HIV-1 Entry Inhibitors” (The Journal of Physical Chemistry. B, 2025).
pIC50: −log10 of the molar value. Entries after “also recorded” stand apart in the source; their conditions may differ. Bridge positions count the residues as written; N and C are the ends. Ends that are not written are not given here. Peptide text beside a SMILES is read from it.

Key:
[1] = tested on: HIV-1 CH042 (clade C transmitted-founder); settings: TZM-bl cells, clade C CH042 TF HIV-1
Method: (§1) Figure 3 Size optimization of VIR-148. (A) TZM-bl reporter cells were incubated with increasing concentrations of VIR-148, VIR-102, or the indicated internally truncated itVIRIP derivatives. Cells were subsequently infected with HIV-1 NL4-3, and beta-galactosidase activity was determined 3 days after infection. (B) Hemolytic effect of indicated compounds on human erythrocytes. Each tile represents the area under the curve (AUC) for hemolytic activity. Full hemolysis is represented by a Triton-X control. (C) Amino acid alignment of the FP regions (red) of HIV-1 CH042, CH077, SIVmac239 and HIV-2 ROD10. (D) TZM-bl cells were incubated with increasing concentrations of VIR-148 or soVIRIP and subsequently infected with the HIV-1 CH042 or CH077, SIVmac239 or HIV-2 ROD10. […] The contribution of each amino acid to the binding interaction is indicated by color saturation. (F) Time-resolved ReaxFF-based molecular dynamics simulation of the interaction between soVIRIP and the HIV-1 FP. The trajectories are shown for VIR-148 (blue) and soVIRIP (orange). (G) Correlation between the free energy contribution of each amino acid of soVIRIP with the corresponding amino acid in VIR-148, based on ReaxFF simulations.
(§2) To determine infectious virus yield, 10,000 TZM-bl reporter cells/well were seeded in 96-well plates and infected with cell culture supernatants, under reduced 1% FCS conditions, in triplicates on the following day. Three days p.i., cells were lysed and β-galactosidase reporter gene expression was determined using the GalScreen Kit (Applied Bioscience) according to the manufacturer’s instructions with an Orion microplate luminometer (Berthold).
(§3) 10,000 TZM-bl reporter cells were seeded in 96-well plates in 100 μL of supplemented DMEM. The following day, the medium was changed to reduced 1% FCS-supplemented DMEM, and serially diluted peptide was added to the cells. The cells were subsequently infected with 10 μL of infectivity-normalized virus stocks. At 3 days postinfection, the supernatant was removed, and β-galactosidase activity was measured as previously described.

[2] = tested on: HIV-1 CH077 (clade B transmitted-founder); settings: TZM-bl cells, clade B CH077 TF HIV-1
Method: as §1, §2, §3

zebrafish embryos = test: Zebrafish embryo toxicity; settings: for toxicity in zebrafish embryos: embryos exposed from 24 hpf for 24 h, 60 embryos per group, two experiments, NRC-03 3 μM, abamectin 3.125 μM
Method: For in vivo studies, wild-type zebrafish embryos (Danio rerio) were dechorionated at 24 h post fertilization (hpf) using digestion with 1 mg/mL Pronase (Sigma) in E3 medium ([…]). In a 96-well plate, 3 embryos per well were exposed for 24 h to 100 μL of E3 containing VIRIP peptides at the concentrations indicated in the figures. Two independent assays were performed, each with 10 × 3 embryos. The peptide solvent (DMSO), diluted in E3, was used as negative control at the same amount as introduced by the peptide stock. […] Abamectin at a concentration of 3.125 μM was used as positive control for neurotoxicity.[49] At 48 hpf (after 24 h of incubation) embryos were scored in a stereomicroscope for signs of cytotoxicity (lysis and/or necrosis), developmental toxicity (delay and/or malformations) or cardiotoxicity (heart edema and/or reduced or absent circulation). Each embryo was also touched with a needle and reduced or absent touch response (escape movements) was evaluated as signs of neurotoxicity if and only if no signs of acute toxicity were present in the same embryo. Embryos were categorized within each of these toxicity categories into several classes of severity.[35]

HIV-1 NL4-3 = tested on: HIV-1 NL4-3
From the text: To further define critical residues and to assess whether the loop structure is required for antiviral activity, we generated short peptides of six, seven or ten amino acids corresponding to the C- or N-termini of VIR-148, respectively. To determine their antiviral activity, we pretreated TZM-bl reporter cells with various concentrations of individual or mixed peptides and subsequently exposed them to the CXCR4-tropic HIV-1 NL4–3 strain. TZM-bl reporter cells are highly susceptible to HIV-1 infection and contain the β-galactosidase reporter gene under the control of the HIV-1 long terminal repeat.[34] Three days later, infection was quantified by β-galactosidase assay.
as §2, §3

HIV-2 ROD10 = test: TZM-bl infection inhibition, HIV-2 ROD10; assay type: cell-based; settings: TZM-bl cells
Method: (§4) Figure 3 Size optimization of VIR-148. (A) TZM-bl reporter cells were incubated with increasing concentrations of VIR-148, VIR-102, or the indicated internally truncated itVIRIP derivatives. Cells were subsequently infected with HIV-1 NL4-3, and beta-galactosidase activity was determined 3 days after infection. (B) Hemolytic effect of indicated compounds on human erythrocytes. Each tile represents the area under the curve (AUC) for hemolytic activity. Full hemolysis is represented by a Triton-X control. (C) Amino acid alignment of the FP regions (red) of HIV-1 CH042, CH077, SIVmac239 and HIV-2 ROD10. […]
as §2
(§5) 10,000 TZM-bl reporter cells were seeded in 96-well plates in 100 μL of supplemented DMEM. […] At 3 days postinfection, the supernatant was removed, and β-galactosidase activity was measured as previously described.

SIVmac239 = test: TZM-bl infection inhibition, SIVmac239; assay type: cell-based, SIVmac; settings: TZM-bl cells
Method: as §4, §2, §5

Compound | pIC50 [1] | pIC50 [2] | toxicity in zebrafish embryos (zebrafish embryos) | pIC50 (HIV-1 NL4-3; NL4-3) | antiviral activity (in words) (HIV-1 NL4-3; TZM-bl reporter cells, HIV-1 NL4-3, β-galactosidase 3 days postinfection) | higher antiviral activity compared to the original VIRIP (HIV-1 NL4-3; ratio of IC50 values) | activity against HIV-2 ROD10 (HIV-2 ROD10) | activity against SIVmac239 (SIVmac239) | nontoxic concentration relative to IC50 against primary HIV-1 strains (zebrafish embryos; zebrafish embryos)
CC[C@H](C)[C@H](NC(=O)[C@H](C)NC(=O)[C@H](CCC(=O)O)NC(=O)[C@@H](N)CC(C)C)C(=O)N1CCC[C@H]1C(=O)N[C@H]1CSSC[C@@H](C(=O)N[C@H](C(=O)N[C@@H](C)C(=O)N[C@@H](Cc2ccccc2)C(=O)N[C@@H](CC(N)=O)C(=O)N[C@@H](CCCCN)C(=O)N2CCC[C@H]2C(=O)N[C@@H](Cc2ccccc2)C(=O)N[C@H](C(=O)N[C@@H](Cc2ccccc2)C(=O)O)C(C)C)C(C)C)NC(=O)[C@@H]2CCCN2C(=O)[C@@H]2CCCN2C(=O)[C@H]([C@@H](C)CC)NC(=O)[C@H](CO)NC1=O [VIR-148, reference compound] (H-LEAIPCSIPPCVAFNKPFVF-OH; disulfide 6-11) | 7.43 | 7.41 |  |  |  |  |  |  | 
GRRKRKWLRRIGKGVKIIGG AALDHL-NH2 [NRC-03, reference compound] |  |  | exhibited the expected toxicities |  |  |  |  |  | 
LEAIPVAFVF [soVIRIP] | 7.43 | 7.41 | did not display significant toxic effects; also recorded: nontoxic | 6.92 | maintained full antiviral activity | more than 100 fold | inactive | inactive | about 2,500 fold
abamectin [reference compound] |  |  | exhibited the expected toxicities |  |  |  |  |  | 
